{"source": "patent US11707447B1", "key": {"HepG2 cells": {"system": "HepG2 cells", "assay": "PrestoBlue cell viability assay", "assay_type": "cell-based, human", "settings": "48 h incubation", "from_the_text": "Non-treated cells were assigned 100% viability. Bar graphs show the mean+/−SD, n=3."}, "DRD1": {"biological_target": "DRD1 (Homo sapiens, UniProt P21728)", "sequence (P21728 whole entry)": "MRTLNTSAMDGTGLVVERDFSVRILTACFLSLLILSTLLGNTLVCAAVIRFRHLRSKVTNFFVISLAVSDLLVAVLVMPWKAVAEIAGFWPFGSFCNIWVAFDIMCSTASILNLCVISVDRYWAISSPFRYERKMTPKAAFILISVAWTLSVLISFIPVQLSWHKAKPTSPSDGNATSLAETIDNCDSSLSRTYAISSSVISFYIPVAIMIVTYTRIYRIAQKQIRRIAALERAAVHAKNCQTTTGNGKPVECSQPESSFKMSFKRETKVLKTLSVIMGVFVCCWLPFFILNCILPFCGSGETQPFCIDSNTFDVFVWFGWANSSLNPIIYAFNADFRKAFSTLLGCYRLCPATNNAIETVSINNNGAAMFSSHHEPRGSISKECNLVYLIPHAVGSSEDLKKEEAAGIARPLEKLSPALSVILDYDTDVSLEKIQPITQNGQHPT", "assay": "SAFETYscan EFC-based cAMP secondary messenger assay (agonist/antagonist mode)", "assay_type": "cell-based"}}}
{"smiles": "CN(C)CCc1c[nH]c2cccc(OC(=O)SCc3ccccc3)c12", "note": "[E(VI)]", "values": [{"measurement": "CD50 (cytotoxicity, cell viability)", "setting": "HepG2 cells", "result": 74.5, "unit": "µM"}, {"measurement": "EC50", "setting": "DRD1", "result": "> 100", "unit": "µM"}, {"measurement": "IC50", "setting": "DRD1", "result": 7.11, "unit": "µM"}]}
